In brackets after ≈: the same amount, converted by molar mass. Entries after “also recorded” stand apart in the source; their conditions may differ.
Assay: Solubility test of each organic compound in pure water by LC-MS analysis
Type: physicochemical
Conditions: 1 mg compound in 1 mL water, ultrasonic waves five minutes, filtered, evaluated from LC peak area; for solubility at 5 min: pure water, thermodynamic from solid
Description: In the LC-MS analysis, liquid chromatography (LC) separation was carried out with ACQUITY UPLC (Waters Corporation), and mass spectrometry (MS) analysis was carried out with Xevo G2 Tof MS (Waters Corporation). Note that this analysis was performed on Hid2Phen, Pyrrd-Phen, and PrdP2Phen. ACQUITY UPLC BEH C8 (2.1×100 mm, 1.7 μm) was used as a column for the LC separation. Acetonitrile was used for Mobile Phase A and a 0.1% aqueous solution of formic acid was used for Mobile Phase B. The injection amount of the sample was 5.0 μL. Note that in the analysis, the wavelength of a photodiode array detector was set to 263 nm±1 nm.
Then, in a 5-mL sample bottle, 1 mg of each organic compound was put and 1 mL of water was added thereto. The mixture was irradiated with ultrasonic waves for five minutes. The mixture was filtered through a membrane filter to remove the solid. The resulting solution was subjected to the LC-MS analysis to create a chromatogram. The solubility was evaluated from the area of a peak in the chromatograph.

solubility at 5 min	Compound	Solubility in pure water
5.5 µg/mL (≈ 12.9 µM)	c1cc(N2CC3CCCCC3C2)c2ccc3c(N4CC5CCCCC5C4)ccnc3c2n1 (stereo not drawn) [Hid2Phen, 4,7-di(2,3,3a,4,5,6,7,7a-octahydro-^1H-isoindol-2-yl)-1,10-phenanthroline]	
	c1cc(-c2ccc(N3CCCC3)cc2)c2ccc3c(-c4ccc(N5CCCC5)cc4)ccnc3c2n1 [PrdP2Phen, 4,7-bis[4-(1-pyrrolidinyl)phenyl]-1,10-phenanthroline]	below the lower detection limit; also recorded: extremely low solubility in pure water; also recorded: Not detected
≥ 50 µg/mL	c1cc(N2CCCC2)c2ccc3c(N4CCCC4)ccnc3c2n1 [Pyrrd-Phen, 4,7-di-1-pyrrolidinyl-1,10-phenanthroline]	

Reference: patent publication US20250248209A1, “LIGHT-EMITTING DEVICE” (SEMICONDUCTOR ENERGY LABORATORY CO., LTD., priority 2024, published 2025)
